Laboratory results reported in patent US5637583A, “Aminocyclohexylesters and uses thereof” (University of British Columbia, priority 1994, dated 1997).
Where a name gives a salt, the structure may show the parent alone.

Key:
[1] = tested on: conscious rats subject to coronary artery occlusion; test: Antiarrhythmic efficacy: incidence of cardiac arrhythmias in conscious rats subject to coronary artery occlusion; assay type: in vivo, rat; details: score 0-9 per Table 2, 30 min after occlusion
Protocol: Antiarrhythmic efficacy was assessed by investigating the effect of a compound on the incidence of cardiac arrhythmias in conscious rats subject to coronary artery occlusion. Rats weighing 200-300 gms were subjected to preparative surgery and assigned to groups in a random block design. In each case, the animal was anesthetized with halothane during surgical preparation. The left femoral artery was cannulated for measurement of mean arterial blood pressure and withdrawal of blood samples. The left femoral vein was also cannulated for injection of drugs. The thoracic cavity was opened and a polyethylene occluder loosely placed around the left anterior descending coronary artery. The thoracic cavity was then closed. ECG was recorded by insertion of electrodes placed along the anatomical axis of the heart. All cannulae and electrode leads were exteriorized in the mid scapular region. In random and double-blind manner, about 0.5 to 2 hours post-surgery, an infusion of vehicle, or the compound to be tested was given. After 15 minutes infusion, the occluder was pulled so as to produce coronary artery occlusion. ECG, arrhythmias, blood pressure, heart rate and mortality were monitored for 30 minutes after occlusion. Arrhythmias were recorded as ventricular tachycardia (VT) and ventricular fibrillation (VF) and scored according to Curtis, M. J. and Walker, M. J. A., Cardiovasc.
VPB=ventricular premature beats
VT=ventricular tachycardia
VF=ventricular fibrillation
Occlusion is associated with increases in R-wave height and "S-T" segment elevation; and an occluded zone (measured after death by cardiogreen dye perfusion) in the range of 25%-50% of total left-ventricular weight.

cardiac sodium channel [2] = target: T1, cardiac sodium channel (Rattus norvegicus, UniProt P15389); test: ECG parameters in anesthetized rats (RSh, PR, QRS; cardiac sodium channel blockade); assay type: in vivo; details: i.v. bolus
T1 sequence (P15389 whole entry): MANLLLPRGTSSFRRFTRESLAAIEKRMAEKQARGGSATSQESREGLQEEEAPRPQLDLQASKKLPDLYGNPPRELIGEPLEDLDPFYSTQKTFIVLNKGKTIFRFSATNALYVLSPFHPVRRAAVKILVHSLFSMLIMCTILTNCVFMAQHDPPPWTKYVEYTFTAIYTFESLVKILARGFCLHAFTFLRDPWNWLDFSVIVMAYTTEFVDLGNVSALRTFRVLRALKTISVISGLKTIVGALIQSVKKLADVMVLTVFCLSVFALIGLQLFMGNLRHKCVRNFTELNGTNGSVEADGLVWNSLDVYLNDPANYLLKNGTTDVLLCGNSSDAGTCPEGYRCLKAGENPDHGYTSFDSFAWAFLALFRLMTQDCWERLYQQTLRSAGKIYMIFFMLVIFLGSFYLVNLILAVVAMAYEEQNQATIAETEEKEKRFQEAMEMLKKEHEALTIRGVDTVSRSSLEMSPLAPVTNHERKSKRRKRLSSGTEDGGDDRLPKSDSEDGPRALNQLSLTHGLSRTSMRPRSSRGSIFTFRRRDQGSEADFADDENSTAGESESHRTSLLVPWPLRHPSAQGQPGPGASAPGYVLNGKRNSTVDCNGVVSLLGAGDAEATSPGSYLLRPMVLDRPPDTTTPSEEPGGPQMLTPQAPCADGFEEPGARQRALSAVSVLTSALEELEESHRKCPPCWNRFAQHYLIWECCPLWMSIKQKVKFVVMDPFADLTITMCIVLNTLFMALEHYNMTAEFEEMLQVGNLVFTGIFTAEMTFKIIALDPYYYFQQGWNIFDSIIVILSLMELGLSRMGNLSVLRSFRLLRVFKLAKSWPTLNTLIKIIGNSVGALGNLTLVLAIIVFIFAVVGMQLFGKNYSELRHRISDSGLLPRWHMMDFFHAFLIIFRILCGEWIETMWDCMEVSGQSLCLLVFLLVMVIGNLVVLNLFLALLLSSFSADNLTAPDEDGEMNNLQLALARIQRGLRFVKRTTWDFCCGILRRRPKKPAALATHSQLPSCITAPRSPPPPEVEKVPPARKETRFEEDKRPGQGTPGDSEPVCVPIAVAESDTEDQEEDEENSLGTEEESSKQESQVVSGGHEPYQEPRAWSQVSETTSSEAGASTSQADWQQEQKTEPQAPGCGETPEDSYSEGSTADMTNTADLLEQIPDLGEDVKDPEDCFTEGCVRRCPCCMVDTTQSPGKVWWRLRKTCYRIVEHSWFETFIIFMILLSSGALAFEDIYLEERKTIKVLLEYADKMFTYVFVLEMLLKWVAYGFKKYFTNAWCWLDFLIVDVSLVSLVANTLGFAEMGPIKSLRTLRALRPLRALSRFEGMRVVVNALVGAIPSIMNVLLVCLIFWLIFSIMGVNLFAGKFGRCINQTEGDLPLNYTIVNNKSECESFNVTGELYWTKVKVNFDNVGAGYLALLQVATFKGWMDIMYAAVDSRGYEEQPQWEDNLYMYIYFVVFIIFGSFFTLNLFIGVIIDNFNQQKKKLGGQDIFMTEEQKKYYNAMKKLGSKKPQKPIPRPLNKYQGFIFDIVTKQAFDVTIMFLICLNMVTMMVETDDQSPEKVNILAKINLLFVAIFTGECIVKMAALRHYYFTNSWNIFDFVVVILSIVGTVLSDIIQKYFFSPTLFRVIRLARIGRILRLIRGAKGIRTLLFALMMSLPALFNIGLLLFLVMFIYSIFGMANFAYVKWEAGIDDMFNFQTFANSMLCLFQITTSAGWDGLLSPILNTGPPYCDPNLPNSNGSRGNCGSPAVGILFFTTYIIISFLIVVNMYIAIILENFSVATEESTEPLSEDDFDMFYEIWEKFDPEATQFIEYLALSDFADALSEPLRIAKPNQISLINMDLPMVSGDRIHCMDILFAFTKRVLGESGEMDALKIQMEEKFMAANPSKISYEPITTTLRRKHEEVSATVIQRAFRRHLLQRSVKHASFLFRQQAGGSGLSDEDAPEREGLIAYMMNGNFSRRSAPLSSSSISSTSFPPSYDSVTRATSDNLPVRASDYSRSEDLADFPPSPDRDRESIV
Protocol: Rats weighing 200-250 gms were used in this example. Animals were anesthetized with 60 mg/kg pentobarbitone i.p. The carotid artery and jugular vein were cannulated for measurement of blood pressure and drug injection, respectively. ECG was recorded by insertion of electrodes placed along the anatomical axis of the heart. All compounds were given as bolus injections.
Various ECG parameters were measured. The most sensitive of these for measuring sodium channel blockade is RSh (J. Pharmacology Methods 27:51-58 (1992)). Table 4 describes the results of the tests as ED25 (micromoles/kg) which are the doses required to produce a 25% increase in the parameter measured (ne=not estimated). The increases in P-R interval, QRS interval and RSh indicate cardiac sodium channel blockade while the increase in Q-T interval indicates ancillary cardiac potassium channel blockade which is the property of a type 1 a antiarrhythmic.

[3] = tested on: cardiac potassium channel; test: ECG parameters in anesthetized rats (QT; ancillary cardiac potassium channel blockade); assay type: in vivo, rat; details: i.v. bolus, Q-T interval
Protocol: Various ECG parameters were measured. […] The increases in P-R interval, QRS interval and RSh indicate cardiac sodium channel blockade while the increase in Q-T interval indicates ancillary cardiac potassium channel blockade which is the property of a type 1 a antiarrhythmic.

cardiac sodium channel [4] = target: T1, cardiac sodium channel; test: Electrical stimulation of left ventricle in rats (iT, VFT; cardiac sodium channel blockade); assay type: in vivo; details: infusion rate for 25% increase from control; anesthetized rats
Protocol: Rats were prepared according to the preceding procedure. Two silver stimulating electrodes were inserted through the chest wall and implanted in the left ventricle. Square wave stimulation was used to determine threshold current for capture, ventricular fibrillation threshold current, and effective refractory period (Howard, P. G. and Walker, M. J. A., Proc. West. Pharmacol. Soc. 33:123-127 (1990)). Table 5 contains ED25 values for these indices of cardiac sodium channel blockade, where the ED25 is the infusion rate in micromoles/kg/minute of compound required to elicit a 25% increase from control. The increases in refractoriness indicate ancillary blockade of potassium channels. The threshold current for capture is represented by "iT". The fibrillation threshold current is represented by "VFT". The effective refracting period is represented by "ERP".

potassium channels = test: Electrical stimulation of left ventricle in rats (ERP; ancillary blockade of potassium channels); assay type: in vivo, rat; details: infusion rate for 25% increase from control; anesthetized rats
Excerpt: Two silver stimulating electrodes were inserted through the chest wall and implanted in the left ventricle. Square wave stimulation was used to determine threshold current for capture, ventricular fibrillation threshold current, and effective refractory period (Howard, P. G. and Walker, M. J. A., Proc. West. Pharmacol. Soc. 33:123-127 (1990)). […] The threshold current for capture is represented by "iT". The fibrillation threshold current is represented by "VFT". The effective refracting period is represented by "ERP".

cardiac sodium channel [5] = target: T1, cardiac sodium channel; test: Whole cell voltage clamp tests, single isolated adult rat cardiac cells; assay type: cell-based; details: whole cell voltage clamp, isolated adult rat cardiac cells; read-out: EC50 (concentration required to produce a 50% reduction in sodium current)
Protocol: In order to directly measure cardiac sodium channel blockade, standard whole cell voltage clamp tests were carried out using single isolated adult rat cardiac cells. Results in the form of EC50 values, which are micromolar concentrations required to produce a 50% reduction in sodium current, are presented in Table 6.

phrenic nerve diaphragm = test: Nerve conduction blockade in vitro, phrenic nerve diaphragm; details: Rattus norvegicus; phrenic nerve diaphragm, in vitro; read-out: concentration at which the twitch response from electrical stimulation is reduced to 50% of control value
Protocol: In order to establish the potency of the compounds to block nerve conduction, two in vitro assays were used. The first was the phrenic nerve diaphragm of the rat. […] Nerve blockade in these preparations is indicative of local anesthetic activity. Compounds were administered to the bath solution in increasing concentrations while the preparations were being stimulated with regular electrical impulses.

[6] = tested on: hypogastric nerve vas deferens; test: Nerve conduction blockade in vitro, hypogastric nerve vas deferens; details: hypogastric nerve vas deferens, in vitro; read-out: concentration at which the twitch response from electrical stimulation is reduced to 50% of control value
Protocol: In order to establish the potency of the compounds to block nerve conduction, two in vitro assays were used. The first was the phrenic nerve diaphragm of the rat. The second was the hypogastric nerve vas deferens. Nerve blockade in these preparations is indicative of local anesthetic activity. Compounds were administered to the bath solution in increasing concentrations while the preparations were being stimulated with regular electrical impulses.

[7] = tested on: central nervous system of the rat; test: Opioid-like effects during in vivo tests
Excerpt: This provides evidence that some of the compounds may have analgesic activity through activation of opioid receptors. Examination of members of this series of compounds by analgesic assays and binding studies show the presence of opioid binding and activity.

| SMILES | AS (arrhythmia score) ([1]; dose 5 micromoles/kg/min infusion) | ED25 RSh (dose required to produce a 25% increase) (cardiac sodium channel [2]) [µmol/kg] | ED25 QT (dose required to produce a 25% increase) [3] [µmol/kg] | ED25 VFT (fibrillation threshold current) (cardiac sodium channel [4]) [µmol/kg/min] | ED25 iT (threshold current for capture) (cardiac sodium channel [4]) [µmol/kg/min] | ED25 ERP (effective refractory period) (potassium channels) [µmol/kg/min] | EC50 (cardiac sodium channel [5]) [µM] | IC50 (phrenic nerve diaphragm) [µM] | IC50 [6] [µM] | opioid-like effects on the central nervous system [7] | AS (arrhythmia score) ([1]; dose 20 micromoles/kg/min infusion) | ED25 PR (dose required to produce a 25% increase) (cardiac sodium channel [2]; P-R interval) [µmol/kg] |
| --- | --- | --- | --- | --- | --- | --- | --- | --- | --- | --- | --- | --- |
| Cl.O=C(Cc1csc2ccccc12)O[C@@H]1CCCC[C@H]1N1CCOCC1 (racemic) [Compound #6, (±)-trans-[2-(4-morpholinyl)cyclohexyl]benzo[b]thiophene-3-acetate monohydrochloride] | 1.8 | 100 | 79 | 9 | 12 | 7 | 150 | 30 | 100 | induced opioid-like effects on the central nervous system of the rat | – | – |
| O=C(COc1cccc2ccccc12)O[C@@H]1CCCC[C@H]1N1CCCC1 (relative stereo) [Compound #2, (±)-trans-[2-(1-pyrrolidinyl)cyclohexyl](1-naphthoxy)acetate monohydrochloride] | – | 11 | 53 | 2 | 5 | 3 | 50 | 120 | 25 | – | 4 | 23 |
